# Experimental data: ChEMBL document CHEMBL1201862, “PubChem BioAssay data set” (2004)
#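 48-hour exposure; five concentrations; linearly interpolated endpoints. Here, GI50 denotes the concentration required for 50% inhibition of growth.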 The source made the active and inactive calls. Cut-off read from the data, not from the text of the source: active = GI50 up to about 1.1 µM and inactive = higher.
# Assays:
# Assay in all cases: NCI tumour cell line growth inhibition, 48 h
# COLO 205 = test system: COLO 205
# NCI/ADR-RES = test system: NCI/ADR-RES
# PC-3 = test system: PC-3
# 786-0 = test system: 786-0
# RXF 393 = test system: RXF 393
# HOP-62 = test system: HOP-62
# BT-549 = test system: BT-549
# HCT-116 = test system: HCT-116
# SK-OV-3 = test system: SK-OV-3
# MDA-MB-435 = test system: MDA-MB-435
# HL-60 = test system: HL-60
# CAKI-1 = test system: CAKI-1
# SK-MEL-5 = test system: SK-MEL-5
# UACC-257 = test system: UACC-257
# EKVX = test system: EKVX
# Hs-578T = test system: Hs-578T
# ACHN = test system: ACHN
# T47D = test system: T47D
# MDA-N = test system: MDA-N
# NCI-H226 = test system: NCI-H226
# HCT-15 = test system: HCT-15
# U-251 = test system: U-251
# MDA-MB-231 = test system: MDA-MB-231
# NCI-H23 = test system: NCI-H23
# K562 = test system: K562
# OVCAR-3 = test system: OVCAR-3
# HT-29 = test system: HT-29
# OVCAR-8 = test system: OVCAR-8
# SNB-19 = test system: SNB-19
# RPMI-8226 = test system: RPMI-8226
# A498 = test system: A498
# DU-145 = test system: DU-145
# SN12C = test system: SN12C
# OVCAR-5 = test system: OVCAR-5
# SR = test system: SR
# MOLT-4 = test system: MOLT-4
# TK-10 = test system: TK-10
# SF-295 = test system: SF-295
# SK-MEL-2 = test system: SK-MEL-2
# CCRF-CEM = test system: CCRF-CEM
# NCI-H460 = test system: NCI-H460
# M14 = test system: M14
# SW-620 = test system: SW-620
# LOX IMVI = test system: LOX IMVI
# UACC-62 = test system: UACC-62
# Malme-3M = test system: Malme-3M
# SF-268 = test system: SF-268
# KM12 = test system: KM12
# SF-539 = test system: SF-539
# UO-31 = test system: UO-31
# MCF7 = test system: MCF7
# IGROV-1 = test system: IGROV-1
# SNB-75 = test system: SNB-75
# A549 = test system: A549
# OVCAR-4 = test system: OVCAR-4
# HCC 2998 = test system: HCC 2998
# HOP-92 = test system: HOP-92
# SK-MEL-28 = test system: SK-MEL-28
# NCI-H522 = test system: NCI-H522
smiles,measurement,setting,value
COC(=O)c1cc2c3c(c(C(C)=O)c(OC)c2[nH]1)NCC3,GI50,COLO 205,> 50 µM (inactive)
same,GI50,NCI/ADR-RES,> 50 µM (inactive)
same,GI50,PC-3,> 50 µM (inactive)
same,GI50,786-0,> 50 µM (inactive)
same,GI50,RXF 393,> 50 µM (inactive)
same,GI50,HOP-62,> 50 µM (inactive)
same,GI50,BT-549,> 50 µM (inactive)
same,GI50,HCT-116,> 50 µM (inactive)
same,GI50,SK-OV-3,> 50 µM (inactive)
same,GI50,MDA-MB-435,> 50 µM (inactive)
same,GI50,HL-60,> 50 µM (inactive)
same,GI50,CAKI-1,> 50 µM (inactive)
same,GI50,SK-MEL-5,> 50 µM (inactive)
same,GI50,UACC-257,> 50 µM (inactive)
same,GI50,EKVX,> 50 µM (inactive)
same,GI50,Hs-578T,> 50 µM (inactive)
same,GI50,ACHN,> 50 µM (inactive)
same,GI50,T47D,> 50 µM (inactive)
same,GI50,MDA-N,> 50 µM (inactive)
same,GI50,NCI-H226,34.5 µM (inactive)
same,GI50,HCT-15,> 50 µM
same,GI50,U-251,> 50 µM (inactive)
same,GI50,MDA-MB-231,> 50 µM (inactive)
same,GI50,NCI-H23,> 50 µM (inactive)
same,GI50,K562,> 50 µM (inactive)
same,GI50,OVCAR-3,> 50 µM (inactive)
same,GI50,HT-29,> 50 µM (inactive)
same,GI50,OVCAR-8,> 50 µM (inactive)
same,GI50,SNB-19,> 50 µM (inactive)
same,GI50,RPMI-8226,> 50 µM (inactive)
same,GI50,A498,> 50 µM (inactive)
same,GI50,DU-145,> 50 µM (inactive)
same,GI50,SN12C,> 50 µM (inactive)
same,GI50,OVCAR-5,> 50 µM (inactive)
same,GI50,SR,> 50 µM (inactive)
same,GI50,MOLT-4,> 50 µM (inactive)
same,GI50,TK-10,> 50 µM (inactive)
same,GI50,SF-295,> 50 µM (inactive)
same,GI50,SK-MEL-2,> 50 µM (inactive)
same,GI50,CCRF-CEM,> 50 µM (inactive)
same,GI50,NCI-H460,> 50 µM (inactive)
same,GI50,M14,> 50 µM (inactive)
same,GI50,SW-620,> 50 µM (inactive)
same,GI50,LOX IMVI,> 50 µM (inactive)
same,GI50,UACC-62,> 50 µM (inactive)
same,GI50,Malme-3M,> 50 µM (inactive)
same,GI50,SF-268,> 50 µM (inactive)
same,GI50,KM12,> 50 µM (inactive)
same,GI50,SF-539,> 50 µM (inactive)
same,GI50,UO-31,> 50 µM (inactive)
same,GI50,MCF7,> 50 µM (inactive)
same,GI50,IGROV-1,> 50 µM (inactive)
same,GI50,SNB-75,> 50 µM (inactive)
CCOC(=O)CCCn1cc(C(=O)OC)nn1,GI50,COLO 205,> 100 µM (inactive)
same,GI50,NCI/ADR-RES,> 100 µM (inactive)
same,GI50,PC-3,> 100 µM (inactive)
same,GI50,786-0,> 100 µM (inactive)
same,GI50,A549,> 100 µM (inactive)
same,GI50,RXF 393,> 100 µM (inactive)
same,GI50,HOP-62,> 100 µM (inactive)
same,GI50,BT-549,> 100 µM (inactive)
same,GI50,OVCAR-4,> 100 µM (inactive)
same,GI50,HCT-116,> 100 µM (inactive)
same,GI50,MDA-MB-435,> 100 µM (inactive)
same,GI50,CAKI-1,> 100 µM (inactive)
same,GI50,SK-MEL-5,> 100 µM (inactive)
same,GI50,UACC-257,> 100 µM (inactive)
same,GI50,EKVX,> 100 µM (inactive)
same,GI50,Hs-578T,> 100 µM (inactive)
same,GI50,ACHN,> 100 µM (inactive)
same,GI50,T47D,> 100 µM (inactive)
same,GI50,MDA-N,> 100 µM (inactive)
same,GI50,NCI-H226,> 100 µM (inactive)
same,GI50,HCT-15,> 100 µM
same,GI50,U-251,> 100 µM (inactive)
same,GI50,HCC 2998,> 100 µM (inactive)
same,GI50,HOP-92,> 100 µM (inactive)
same,GI50,MDA-MB-231,> 100 µM (inactive)
same,GI50,NCI-H23,> 100 µM (inactive)
same,GI50,HT-29,> 100 µM (inactive)
same,GI50,OVCAR-8,> 100 µM (inactive)
same,GI50,SNB-19,> 100 µM (inactive)
same,GI50,DU-145,> 100 µM (inactive)
same,GI50,SN12C,> 100 µM (inactive)
same,GI50,MOLT-4,> 100 µM (inactive)
same,GI50,TK-10,> 100 µM (inactive)
same,GI50,SF-295,46.5 µM (inactive)
same,GI50,SK-MEL-28,> 100 µM (inactive)
same,GI50,SK-MEL-2,> 100 µM (inactive)
same,GI50,CCRF-CEM,> 100 µM (inactive)
same,GI50,NCI-H460,> 100 µM (inactive)
same,GI50,SW-620,> 100 µM (inactive)
same,GI50,LOX IMVI,> 100 µM (inactive)
same,GI50,UACC-62,> 100 µM (inactive)
same,GI50,Malme-3M,> 100 µM (inactive)
same,GI50,SF-268,> 100 µM (inactive)
same,GI50,KM12,> 100 µM (inactive)
same,GI50,SF-539,> 100 µM (inactive)
same,GI50,UO-31,> 100 µM (inactive)
same,GI50,MCF7,> 100 µM (inactive)
same,GI50,IGROV-1,> 100 µM (inactive)
same,GI50,SNB-75,> 100 µM (inactive)
CCCCCCCCCCCCO[PH](=O)OCCCCCCCCCCCC,GI50,NCI-H522,> 100 µM (inactive)
same,GI50,COLO 205,> 100 µM (inactive)
same,GI50,NCI/ADR-RES,> 100 µM (inactive)
same,GI50,PC-3,> 100 µM (inactive)
same,GI50,786-0,> 100 µM (inactive)
same,GI50,A549,> 100 µM (inactive)
same,GI50,RXF 393,> 100 µM (inactive)
same,GI50,HOP-62,> 100 µM (inactive)
same,GI50,BT-549,> 100 µM (inactive)
same,GI50,OVCAR-4,> 100 µM (inactive)
same,GI50,HCT-116,> 100 µM (inactive)
same,GI50,SK-OV-3,> 100 µM (inactive)
same,GI50,MDA-MB-435,> 100 µM (inactive)
same,GI50,HL-60,> 100 µM (inactive)
same,GI50,SK-MEL-5,> 100 µM (inactive)
same,GI50,UACC-257,28.3 µM (inactive)
same,GI50,EKVX,> 100 µM (inactive)
same,GI50,Hs-578T,> 100 µM (inactive)
same,GI50,ACHN,> 100 µM (inactive)
same,GI50,T47D,> 100 µM (inactive)
same,GI50,MDA-N,> 100 µM (inactive)
same,GI50,NCI-H226,> 100 µM (inactive)
same,GI50,HCT-15,> 100 µM
same,GI50,U-251,> 100 µM (inactive)
same,GI50,HCC 2998,> 100 µM (inactive)
same,GI50,HOP-92,> 100 µM (inactive)
same,GI50,MDA-MB-231,> 100 µM (inactive)
same,GI50,NCI-H23,> 100 µM (inactive)
same,GI50,K562,> 100 µM (inactive)
same,GI50,OVCAR-3,> 100 µM (inactive)
same,GI50,HT-29,> 100 µM (inactive)
same,GI50,OVCAR-8,> 100 µM (inactive)
same,GI50,SNB-19,> 100 µM (inactive)
same,GI50,RPMI-8226,> 100 µM (inactive)
same,GI50,A498,> 100 µM (inactive)
same,GI50,DU-145,> 100 µM (inactive)
same,GI50,SN12C,> 100 µM (inactive)
same,GI50,OVCAR-5,> 100 µM (inactive)
same,GI50,MOLT-4,> 100 µM (inactive)
same,GI50,TK-10,34.4 µM (inactive)
same,GI50,SF-295,> 100 µM (inactive)
same,GI50,SK-MEL-28,> 100 µM (inactive)
same,GI50,SK-MEL-2,> 100 µM (inactive)
same,GI50,CCRF-CEM,> 100 µM (inactive)
same,GI50,NCI-H460,> 100 µM (inactive)
same,GI50,M14,> 100 µM (inactive)
same,GI50,SW-620,> 100 µM (inactive)
same,GI50,UACC-62,> 100 µM (inactive)
same,GI50,Malme-3M,> 100 µM (inactive)
same,GI50,SF-268,> 100 µM (inactive)
same,GI50,KM12,32.2 µM (inactive)
same,GI50,SF-539,> 100 µM (inactive)
same,GI50,UO-31,> 100 µM (inactive)
same,GI50,MCF7,> 100 µM (inactive)
same,GI50,IGROV-1,> 100 µM (inactive)
same,GI50,SNB-75,> 100 µM (inactive)
